Tests used:
[1] = Pharmacokinetics in plasma and lung in mouse; format: in vivo; details: oral aspiration, lung AUC / plasma AUC
[2] = test system: IFNγ induced CXCL10 secretion; test: IFNγ induced CXCL10 in human 3D airway cultures; format: cell-based
Description: EpiAirway tissue cultures were obtained from Mattek (AIR-100). Cultures were derived from asthmatic donors. In a cell culture insert, human derived tracheal/bronchial epithelial cells were grown and differentiated on a porous membrane support, allowing an air-liquid interface with warmed culture medium below the cells and a gaseous test atmosphere above. Tissues were cultured in maintenance media (Mattek, AIR-100-MM) in a 37° C., 5% CO2 humidified incubator. Four donors were tested. On Day 0, tissue cultures were treated with test compounds at 10 μM, 1 μM and/or 0.1 μM. Compounds were diluted in dimethyl sulfoxide (DMSO, Sigma) to a final concentration of 0.1%. DMSO at 0.1% was used as a vehicle control. Test compounds were incubated with cultures for 1 hour at 37° C., 5% CO2, followed by the addition of pre-warmed media containing IFNγ (R&D Systems) or IL-27 (R&D Systems) at a final concentration at 100 ng/ml. Tissue cultures were maintained for 8 days. Media was replaced every 2 days with fresh media containing compounds and IFNγ or IL-27. On Day 8, tissue cultures and supernatants were collected for analysis. […] Data is expressed as % Inhibition+/−standard deviation (±STDV). Percent inhibition was determined by compound inhibitory potency against IFNγ or IL-27 induced CXCL10 or CXCL9 secretion compared to vehicle treated cells. […]

[3] = test system: IL-6 stimulated STAT3 phosphorylation in CD3+ T cells; test: Inhibition of IL-6 stimulated pSTAT3 in CD3+ T cells; format: cell-based, human
From the text: A protocol analogous to that of Assay 10 was used to determine the potency of the test compound for inhibition of interleuken-6 (IL-6) stimulated STAT3 phosphorylation. An Alexa Fluor 647 conjugated anti-pSTAT3 antibody (pY705, Clone 4/P, BD Biosciences) was used to detect STAT3 phosphorylation.

[4] = test system: IL-5 mediated survival of human eosinophils; test: IL-5 mediated eosinophil survival assay; format: cell-based
Description: The potency of the test compound for IL-5 mediated eosinophil survival was measured in human eosinophils isolated from human whole blood (AllCells). Because IL-5 signals through JAK, this assay provides a measure of JAK cellular potency.
Human eosinophils were isolated from fresh human whole blood (AllCells) of healthy donors. Blood was mixed with 4.5% Dextran (Sigma-Aldrich) in a 0.9% sodium chloride solution (Sigma-Aldrich). Red blood cells were left to sediment for 35 minutes. The leukocyte rich upper layer was removed and layered over Ficoll-Paque (GE Healthcare) and centrifuged at 600 g for 30 minutes. The plasma and mononuclear cell layers were removed before the granulocyte layer was lysed with water to remove any contaminating red blood cells. […] Purity was analyzed using a LSRII flow cytometer (BD Biosciences). […]
After cytokine stimulation, cells were centrifuged at 300 g for 5 min and washed twice with cold DPBS (Life Technologies). To access viability and apoptosis, cells were incubated with Propidium Iodide (Thermo Fisher Scientific) and APC Annexin V (BD Biosciences) and analyzed using a LSRII flow cytometer (BD Biosciences). IC50 values were determined from analysis of the viability curves of percent cell viability vs compound concentration. Data are expressed as pIC50 (negative decadic logarithm IC50) values.

[5] = test system: IL-2/anti-CD3 stimulated IFNγ in human PBMCs; test: Inhibition of IL-2/anti-CD3 stimulated IFNγ in human PBMCs; format: cell-based
Description: The potency of the test compound for inhibition of interleukin-2 (IL-2)/anti-CD3 stimulated interferon gamma (IFNγ) was measured in human peripheral blood mononuclear cells (PBMCs) isolated from human whole blood (Stanford Blood Center). Because IL-2 signals through JAK, this assay provides a measure of JAK cellular potency.
(1) Human peripheral blood mononuclear cells (PBMC) were isolated from human whole blood of healthy donors using a ficoll gradient. Cells were cultured in a 37° C., 5% CO2 humidified incubator in RPMI (Life Technologies) supplemented with 10% Heat Inactivated Fetal Bovine Serum (FBS, Life Technologies), 2 mM Glutamax (Life Technologies), 25 mM HEPES (Life Technologies) and 1× Pen/Strep (Life Technologies). Cells were seeded at 200,000 cells/well in media (50 μL) and cultured for 1 h. Compounds were serially diluted in DMSO and then diluted another 500-fold (to a 2× final assay concentration) in media. […]
(2) After cytokine stimulation, cells were centrifuged at 500 g for 5 min and supernatants removed and frozen at −80° C. To determine the inhibitory potency of the test compound in response to IL-2/anti-CD3, supernatant IFNγ concentrations were measured via ELISA (R&D Systems). IC50 values were determined from analysis of the inhibition curves of concentration of IFNγ vs compound concentration. Data are expressed as pIC50 (negative decadic logarithm IC50) values.

Row | Compound | Lung to Plasma ratio Assay 3 [1] | inhibition at 10 µM [2] [%] | IL-6 signaling (in words) [3] | IL-5 mediated human eosinophil survival (in words) [4] | anti-CD3 and IL-2 induced release of IFNγ from activated human peripheral blood-isolated T cells (in words) [5]
1 | CCCN1Cc2[nH]c(-c3n[nH]c4cc(-c5cc(F)c(O)cc5CC)ccc34)nc2C[C@H]1C(=O)N1CC(N(C)C)C1 [Example 4, (S)-(3-(dimethylamino)azetidin-1-yl)(2-(6-(2-ethyl-5-fluoro-4-hydroxyphenyl)-1H-indazol-3-yl)-5-propyl-4,5,6,7-tetrahydro-3H-imidazo[4,5-c]pyridin-6-yl)methanone] | C (C denotes a ratio between 20 and 50) | – | – | – | –
2 | CCc1cc(O)c(F)cc1-c1ccc2c(-c3nc4c([nH]3)CN(C(C)C)[C@H](C(=O)N3CC(N(C)C)C3)C4)n[nH]c2c1 [Example 2, (S)-(3-(dimethylamino)azetidin-1-yl)(2-(6-(2-ethyl-5-fluoro-4-hydroxyphenyl)-1H-indazol-3-yl)-5-isopropyl-4,5,6,7-tetrahydro-3H-imidazo[4,5-c]pyridin-6-yl)methanone] | – | 101 | inhibit | potently inhibit | inhibit

— US10954237B2, “JAK inhibitors containing a 4-membered heterocyclic amide” (THERAVANCE BIOPHARMA R&D IP, LLC, priority 2017, dated 2021)
